Legend:
α-tubulin = assay: Western blot of isolated (soluble) and polymerized tubulin from HUVECs; format: cell-based, Human; settings: 1 uM, 10 uM and 20 uM, 24 hours, higher concentration
Excerpt: To investigate whether such apoptosis phenomenon is caused by a cytoskeletal abnormality that affects cell division and cell differentiation, the change in α-tubulin expression in the cytoskeleton was identified by the division of tubulin into isolated form (soluble, S) and polymerized form (ppt, P). HUVECs (obtained from ATCC) were cultivated in F25 culture flasks containing F-12K (Sigma) medium supplemented with 10% FBS and endothelial cell growth supplement (ECGS, E2759, Sigma). After cultivation for 24 hours, the cells were treated with sodium meta arsenite at a concentration of 1 uM, 10 uM and 20 uM. Cells were collected 24 hours after treatment. The collected cells were suspended in RIPA buffer (50 mM Tris, pH 7.5, 150 mM NaCl, 1% NP-40, 0.5% sodium deoxychloate, 0.1% SDS, protease inhibitor) at room temperature for 10 minutes and then centrifuged for 30 minutes at 22° C. at 13,200 rpm to separate the supernatant liquid from the sediment. RIPA solution was added to the sediment in the same amount and the sediment was crushed using an ultrasonic cell crusher. The protein from the supernatant liquid and the sediment were assayed using a BCA protein kit (Thermo, 23227) and then the same amount of protein (3 μg) was mixed with protein sample buffer and it was warmed up in a water bath in boiling water at 100° C. for five minutes. SDS-PAGE was conducted on a 10% gel. […]

HUVECs = assay: Cytotoxicity test of HUVECs (CellTiter 96 Aqueous One Solution); format: cell-based, Human
Description: To determine the effect, if any, of sodium meta arsenite on vascularization, the effect on endothelial cells (which are essential for vascularization) was first analyzed. Human umbilical cord vein endothelial cells (HUVECs offered by ATCC) were cultivated in 96-well microculture plates containing F-12K (Sigma) medium supplemented with 10% FBS and endothelial cell growth supplement (ECGS, E2759, Sigma). For the cytotoxicity test of the cells after 24 hour cultivation, the cells were treated with KML001 at the concentration of 0.1 nM, 1 nM, 10 nM, 1 uM, 10 uM and 100 uM. At 24 hours and 48 hours after treatment, 20 μl/well of CellTiter 96® Aqueous One Solution (by Promega) Reagent was added on each well and reacted for one hour at 37° C. The reacted 96-well plates were measured at 490 nm using a spectrophotometer (UVStar, Greiner Bio-One). To analyze apoptosis of HUVECs, the cells were cultivated on F25 flasks using the same method as discussed above and then the cells were treated with sodium meta arsenite at a concentration of 10 uM, 20 uM and 50 uM. Cells were collected after 24 and 48 hours. The collected cells were stained for 30 minutes with Annexin-V for FACS analysis. After two washes, the cells were analyzed by using flow cytometry (FACSCALIBUR, BECTON DICLINSON).

O=[As][O-].[Na+] [sodium meta arsenite]
protein level in sediment (polymerized tubulin) (α-tubulin): reduced the protein level | protein level in supernatant liquid (isolated tubulin) (α-tubulin): reduced the protein level | concentration at which cytotoxicity was observed (HUVECs; 24 and 48 hours after treatment, tested 0.1 nM to 100 uM): 10 µM | cytotoxicity over time (HUVECs; 24 hours vs 48 hours): significantly increased over time
